From patent US9737260B2, “Methods for determining total body skeletal muscle mass” (GLAXOSMITHKLINE LLC, priority 2011, dated 2017)

Key:
[1] = rat, oral dose of 0.475 mg D3-creatine per rat
[2] = Dexamethasone-induced skeletal muscle atrophy in rats: lean body mass by QMR and creatine pool size by D3-creatine dilution; conditions: 22 week-old rats, once daily subcutaneous for 2 weeks; P<0.001 vs vehicle (459±45 g)

SMILES	absorption of oral dose [1]	D3-creatine tracer dose available to equilibrate with the body creatine pool ([1]; minimal urinary spillage) [%]	lean body mass (LBM) [2] [g]
[2H]C([2H])([2H])N(CC(=O)O)C(=N)N [D3-creatine]	rapidly and completely absorbed	> 99	–
C[C@@H]1C[C@H]2[C@@H]3CCC4=CC(=O)C=C[C@]4(C)[C@@]3(F)[C@@H](O)C[C@]2(C)[C@@]1(O)C(=O)CO [dexamethasone]	–	–	353 ± 32
